Data reported in patent US20080318869A1, “Method to Promote Wound Healing” (IMMUNEREGEN BIOSCIENCES, INC., priority 2004, published 2008).

Tested on: tail wounds of irradiated mice
Assay: Healing of tail bite wounds in irradiated mice
Type: in vivo
Conditions: male mice with tail bite wounds; 7, 8, or 9 Gy 60 Cobalt gamma radiation single acute dose; direct muscle injection 0.5 ml bolus at 2 micromolar; 7 weeks post-radiation exposure; saline controls had unhealed tail wounds
Protocol: The male mice fought while confined with four mice/bin. They sustained extensive tail wounds from biting. We then exposed the mice to either 7, 8, or 9 Gy 60 Cobalt gamma radiation in a single acute dose. [Sar^9,Met(02)^11]-substance P was administered by direct muscle injection in a 0.5 ml bolus at 2 micromolar concentration. Control animals received injections of normal saline.

For [Sar^9,Met(O2)^11]-substance P, the unhealed tail wounds was “did not have any unhealed tail wounds”.
